Measured values reported in ChEMBL document CHEMBL1126433 (Bioorg Med Chem Lett, 1992).
Activity calls are given as the source filed them. No cut-off for these calls is given here.

Key:
[1] = target: T1, Cyclooxygenase (Rattus norvegicus) (UniProt P35355+Q63921); assay: Compound was evaluated for its inhibitory activity against CO(cyclooxygenase) at 10 uM concentration in intact RBL-1 cell line assay; format: cell-based
[2] = target: T2, Polyunsaturated fatty acid 5-lipoxygenase (Rattus norvegicus) (UniProt P12527); assay: Compound was evaluated for its inhibitory activity against 5-LO (5-lipoxygenase) at 10 uM concentration in intact RBL-1 cell line assay; Less than 5% inhibition at 10 uM reported as not active; format: cell-based
T2 sequence (whole entry): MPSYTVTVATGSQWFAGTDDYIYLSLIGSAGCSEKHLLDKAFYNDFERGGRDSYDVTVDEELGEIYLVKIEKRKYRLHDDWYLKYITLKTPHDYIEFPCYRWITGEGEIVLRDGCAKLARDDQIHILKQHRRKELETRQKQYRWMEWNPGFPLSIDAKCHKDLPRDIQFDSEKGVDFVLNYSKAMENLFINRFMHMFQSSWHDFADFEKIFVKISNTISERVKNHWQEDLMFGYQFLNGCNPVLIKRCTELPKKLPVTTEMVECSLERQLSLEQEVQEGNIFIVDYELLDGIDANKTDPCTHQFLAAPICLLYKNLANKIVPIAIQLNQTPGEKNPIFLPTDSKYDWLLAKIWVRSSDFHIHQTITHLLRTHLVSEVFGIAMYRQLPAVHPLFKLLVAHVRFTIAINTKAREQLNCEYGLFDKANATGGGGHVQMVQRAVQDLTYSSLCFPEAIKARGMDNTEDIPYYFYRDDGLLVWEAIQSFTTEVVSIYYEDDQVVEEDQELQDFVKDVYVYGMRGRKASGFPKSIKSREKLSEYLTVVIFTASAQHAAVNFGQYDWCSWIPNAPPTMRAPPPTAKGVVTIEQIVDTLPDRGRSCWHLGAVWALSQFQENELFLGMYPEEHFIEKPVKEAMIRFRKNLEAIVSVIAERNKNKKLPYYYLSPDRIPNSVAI

Cyclooxygenase [3] = target: T3, Cyclooxygenase (Rattus norvegicus, UniProt P35355+Q63921); assay: Compound was evaluated for its inhibitory activity against CO(cyclooxygenase); format: protein assay
T3 sequence (P35355 whole entry): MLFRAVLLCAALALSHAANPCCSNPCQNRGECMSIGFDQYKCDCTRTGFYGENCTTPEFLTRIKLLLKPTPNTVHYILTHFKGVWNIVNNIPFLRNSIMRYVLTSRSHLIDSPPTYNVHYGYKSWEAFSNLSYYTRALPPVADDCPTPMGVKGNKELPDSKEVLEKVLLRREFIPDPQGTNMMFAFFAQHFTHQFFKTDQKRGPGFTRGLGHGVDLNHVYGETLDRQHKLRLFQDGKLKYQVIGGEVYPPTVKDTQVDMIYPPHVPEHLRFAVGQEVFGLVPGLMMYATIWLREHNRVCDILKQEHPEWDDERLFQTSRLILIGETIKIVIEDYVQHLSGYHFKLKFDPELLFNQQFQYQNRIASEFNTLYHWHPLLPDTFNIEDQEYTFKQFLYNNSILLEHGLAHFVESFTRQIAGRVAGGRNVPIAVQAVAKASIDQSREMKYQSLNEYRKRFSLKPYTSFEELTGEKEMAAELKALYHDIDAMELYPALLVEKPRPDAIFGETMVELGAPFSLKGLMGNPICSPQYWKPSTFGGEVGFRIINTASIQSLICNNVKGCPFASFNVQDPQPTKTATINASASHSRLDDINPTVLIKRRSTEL
T3 sequence (Q63921 whole entry): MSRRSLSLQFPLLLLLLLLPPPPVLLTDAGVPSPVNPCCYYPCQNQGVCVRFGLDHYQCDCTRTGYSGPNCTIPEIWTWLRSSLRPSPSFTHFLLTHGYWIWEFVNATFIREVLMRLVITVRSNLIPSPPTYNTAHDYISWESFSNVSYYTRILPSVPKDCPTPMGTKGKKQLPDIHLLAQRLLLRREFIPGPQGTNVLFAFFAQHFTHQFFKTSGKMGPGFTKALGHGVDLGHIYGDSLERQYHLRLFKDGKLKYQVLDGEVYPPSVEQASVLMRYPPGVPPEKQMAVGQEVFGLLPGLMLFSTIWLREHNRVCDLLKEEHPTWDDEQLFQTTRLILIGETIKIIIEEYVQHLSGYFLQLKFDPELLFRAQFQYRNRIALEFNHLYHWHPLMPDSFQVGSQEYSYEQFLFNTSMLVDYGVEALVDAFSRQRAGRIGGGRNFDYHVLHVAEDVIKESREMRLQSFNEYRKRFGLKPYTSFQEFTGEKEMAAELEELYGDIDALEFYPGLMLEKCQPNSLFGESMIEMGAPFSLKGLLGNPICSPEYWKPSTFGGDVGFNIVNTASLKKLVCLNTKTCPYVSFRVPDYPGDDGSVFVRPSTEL

Cyclooxygenase [4] = target: T3, Cyclooxygenase; assay: Compound was evaluated for its inhibitory activity against CO(cyclooxygenase) in intact RBL-1 cell line assay; format: cell-based
[5] = target: T4, Polyunsaturated fatty acid 5-lipoxygenase (Rattus norvegicus, UniProt P12527); assay: Compound was evaluated for its inhibitory activity against 5-LO (5-lipoxygenase) in intact RBL-1 cell line assay; format: cell-based
T4 sequence (P12527 whole entry): T2 sequence (whole entry)

[6] = target: T2, Polyunsaturated fatty acid 5-lipoxygenase (Rattus norvegicus); assay: Compound was evaluated for its inhibitory activity against 5-LO (5-lipoxygenase) at 10 uM concentration in intact RBL-1 cell line assay; format: cell-based
[7] = target: T1, Cyclooxygenase (Rattus norvegicus); assay: Compound was evaluated for its inhibitory activity against CO(cyclooxygenase) at 10 uM concentration in intact RBL-1 cell line assay; Less than 5% inhibition at 10 uM reported as not active; format: cell-based

SMILES: Cc1ccc(Cl)c(Nc2ccccc2/C=C2\SC(=S)N(CC(=O)O)C2=O)c1Cl
- inhibition [1]: 33%

SMILES: Cc1ccc(Cl)c(Nc2ccccc2/C=C2\SC(=S)N(C)C2=O)c1Cl
- inhibition [2]: inactive
- inhibition [1]: 32%

SMILES: Cc1ccc(Cl)c(Nc2ccccc2/C=C2\SC(=S)NC2=O)c1Cl
- IC50 (Cyclooxygenase [3]): 6000 nM

SMILES: Cc1ccc(Cl)c(Nc2ccccc2/C=C2\SC(NC#N)=NC2=O)c1Cl
- IC50 (Cyclooxygenase [4]): 10200 nM
- IC50 [5]: 1500 nM

SMILES: Cc1ccc(Cl)c(Nc2ccccc2/C=C2\SC(=O)NC2=O)c1Cl
- inhibition [6]: 30%
- inhibition [7]: inactive

SMILES: COc1ccc2c(c1)c(/C=C1/SC(=S)NC1=O)c(C)n2C(=O)c1ccc(Cl)cc1
- IC50 (Cyclooxygenase [4]): 2000 nM
- IC50 [5]: 1400 nM

SMILES: Cc1ccc(Cl)c(Nc2ccccc2/C=C2\SC(N)=NC2=O)c1Cl
- inhibition [6]: 35%
- inhibition [1]: 20%

SMILES: COc1ccc2c(c1)c(CC(=O)O)c(C)n2C(=O)c1ccc(Cl)cc1 [INDOMETHACIN]
- IC50 [5]: > 100000 nM
